# Measured values from US20210052703A1 (SHANGHAI BENEMAE PHARMACEUTICAL CORPORATION, priority 2018, published 2021).
# How the values were obtained:
# [1] = test system: type 2 diabetic patients; assay: trial 5A: Beinaglutide with glipizide in type 2 diabetic patients; assay type: in vivo, human
# [2] = test system: mice with normal glycemic index; assay: glucose-induced high blood sugar in mice; assay type: in vivo
# [3] = test system: animals having a normal level of blood sugar; assay: blood sugar and insulin in animals having a normal level of blood sugar; assay type: in vivo
# [4] = test system: Sprague-Dawley (SD) rats; assay: stomach emptying and carbon powder propelling in SD rats (Example 1); assay type: in vivo, rat; conditions: X ± SE
# Method: Each group had 10 rats, half male and half female. The tails of the rats were labeled as follows:
# The dose selection is calculated based on human dose. The clinical human dose is estimated to be about 0.4 mg/injection, one injection per day, which corresponds to 36 μg/kg rat dose, calculated based on the body surface area. Accordingly, the rats were tested at a medium dose of 30 μg/kg, a low dose at 50% of the medium dose, and a high dose at 200% of the medium dose. The clinical human dose of liraglutide for treating obesity is 3.0 mg/injection, one injection per day, which corresponds to 270 μg/kg rat dose, calculated based on the body surface area.
# The positive control was liraglutide injectable formulation, which was stored in dark, sealed condition. The rats were raised and kept at the Laboratory Animal Center, Shanghai University of Traditional Chinese Medicine.
# The injectable formulations were made and diluted at the time of experiment, as follows:
# The rats were fasted for 16 hours with only water provided. Before being divided into groups, the rats were weighed and weights were recorded (cage numbering and tail labeling). Based on the body weight, the rats were randomly divided into 5 groups, 10 in each group, half male and half female.
# The rats were administered with appropriate amounts of Beinaglutide or liraglutide based on their body weights by subcutaneous injection. Female rats were injected after male rats, in the order of their group numbers: 101, 201, 301, 401, 501, 102, 202, 302, 402, 502, etc. The formulations were injected to the rats by lifting the skin in the back, placing the needle of the syringe subcutaneously and injecting. When retrieving the needle, the site of injection was pressed with hand to avoid leakage of the formulation. The amount of injection is about 0.1 ml/100 g body weight.
# [5] = test system: rabbits with normal glycemic index; assay: glucose-induced high blood sugar in rabbits; assay type: in vivo
# [6] = test system: Sprague-Dawley (SD) rats; assay: stomach emptying in male and female SD rats, various dosages (Example 6); conditions: for % of Gastric Remains / Gross Weight of Stomach / Propelling Distance of Carbon Powder / Propelling Rate of Carbon Powder: X ± SE
# Method: Five minutes after subcutaneous injection, gavage was conducted using 5% carbon powder suspension (in 2% carboxymethylcellulose solution) at 1.5 ml/100 g body weight. […] The stomach was wiped dry with filter paper and weighed for the gross weight of the stomach. Then the content of the stomach was removed and the stomach was weighed for the net weight. The respective distance from the pyloric sphincter to the front of carbon powder suspension and to the distal end of the large intestine was measured. • propelling distance of carbon powder in the intestine (cm)=distance from pylorus to the proximal end of carbon powder; • mass of carbon powder gavaged=concentration of carbon powder suspension×volume; • propelling rate of carbon powder (%)=propelling distance of carbon powder in the intestine (cm)/entire length of intestine (cm)×100%; • rate of gastric remains (%)=(gross weight of stomach−net weight of stomach)/mass of carbon powder gavaged×100%.
# The animals were fasted 29-33 hours before injection, and the animals were not given any water 5-7 hours before injection. Injections were made by subcutaneous administration to the neck, at 0.1 ml/100 g body weight.
# [7] = test system: mice; assay: blood sugar increase induced by alloxan and streptozotocin in mice; assay type: in vivo
# [8] = female rats, Beinaglutide 15 μg/kg subcutaneous
# [9] = female rats, Beinaglutide 30 μg/kg subcutaneous
# [10] = female rats, Beinaglutide 60 μg/kg subcutaneous
# [11] = male rats, Beinaglutide 15 μg/kg subcutaneous
# [12] = male rats, Beinaglutide 30 μg/kg subcutaneous
# [13] = male rats, Beinaglutide 60 μg/kg subcutaneous
# [14] = female rats, 10 μg/kg subcutaneous
# [15] = female rats, 12.5 μg/kg subcutaneous
# [16] = female rats, 15 μg/kg subcutaneous
# [17] = female rats, 30 μg/kg subcutaneous
# [18] = female rats, 45 μg/kg subcutaneous
# [19] = female rats, 60 μg/kg subcutaneous
# [20] = male rats, 10 μg/kg subcutaneous
# [21] = male rats, 12.5 μg/kg subcutaneous
# [22] = male rats, 15 μg/kg subcutaneous
# [23] = male rats, 30 μg/kg subcutaneous
# [24] = male rats, 45 μg/kg subcutaneous
# [25] = male rats, 60 μg/kg subcutaneous
compound,measurement,setting,value
CC[C@H](C)[C@H](NC(=O)[C@H](Cc1ccccc1)NC(=O)[C@H](CCC(=O)O)NC(=O)[C@H](CCCCN)NC(=O)[C@H](C)NC(=O)[C@H](C)NC(=O)[C@H](CCC(N)=O)NC(=O)CNC(=O)[C@H](CCC(=O)O)NC(=O)[C@H](CC(C)C)NC(=O)[C@H](Cc1ccc(O)cc1)NC(=O)[C@H](CO)NC(=O)[C@H](CO)NC(=O)[C@@H](NC(=O)[C@H](CC(=O)O)NC(=O)[C@H](CO)NC(=O)[C@@H](NC(=O)[C@H](Cc1ccccc1)NC(=O)[C@@H](NC(=O)CNC(=O)[C@H](CCC(=O)O)NC(=O)[C@H](C)NC(=O)[C@@H](N)Cc1cnc[nH]1)[C@@H](C)O)[C@@H](C)O)C(C)C)C(=O)N[C@@H](C)C(=O)N[C@@H](Cc1c[nH]c2ccccc12)C(=O)N[C@@H](CC(C)C)C(=O)N[C@H](C(=O)N[C@@H](CCCCN)C(=O)NCC(=O)N[C@@H](CCCNC(=N)N)C(=O)O)C(C)C [Beinaglutide],BMI,"[1]; 0.1 mg three times a day with glipizide, treatment for 2 weeks, FAS n = 24, before treatment 25.51 ± 2.59",25.53 ± 2.63 kg/m^2
same,BMI,"[1]; 0.1 mg three times a day with glipizide, treatment for 4 weeks, FAS n = 24, before treatment 25.51 ± 2.59",25.40 ± 2.64 kg/m^2
same,BMI,"[1]; 0.1 mg three times a day with glipizide, treatment for 8 weeks, FAS n = 24, before treatment 25.51 ± 2.59",25.25 ± 2.57 kg/m^2
same,BMI,"[1]; 0.1 mg three times a day with glipizide, treatment for 12 weeks, FAS n = 24, before treatment 25.51 ± 2.59",25.20 ± 2.60 kg/m^2
same,BMI,"[1]; 0.15 mg three times a day with glipizide, treatment for 2 weeks, FAS n = 24, before treatment 25.66 ± 2.64",25.63 ± 2.57 kg/m^2
same,BMI,"[1]; 0.15 mg three times a day with glipizide, treatment for 4 weeks, FAS n = 24, before treatment 25.66 ± 2.64",25.45 ± 2.63 kg/m^2
same,BMI,"[1]; 0.15 mg three times a day with glipizide, treatment for 8 weeks, FAS n = 24, before treatment 25.66 ± 2.64",25.19 ± 2.48 kg/m^2
same,BMI,"[1]; 0.15 mg three times a day with glipizide, treatment for 12 weeks, FAS n = 24, before treatment 25.66 ± 2.64",25.11 ± 2.60 kg/m^2
same,BMI,"[1]; 0.2 mg three times a day with glipizide, treatment for 2 weeks, FAS n = 23, before treatment 26.71 ± 4.17",26.44 ± 4.14 kg/m^2
same,BMI,"[1]; 0.2 mg three times a day with glipizide, treatment for 4 weeks, FAS n = 23, before treatment 26.71 ± 4.17",26.52 ± 3.95 kg/m^2
same,BMI,"[1]; 0.2 mg three times a day with glipizide, treatment for 8 weeks, FAS n = 23, before treatment 26.71 ± 4.17",26.09 ± 4.04 kg/m^2
same,BMI,"[1]; 0.2 mg three times a day with glipizide, treatment for 12 weeks, FAS n = 23, before treatment 26.71 ± 4.17",25.92 ± 3.95 kg/m^2
same,effect on glucose-induced high blood sugar,[2],lower glucose-induced high blood sugar
same,effect on blood sugar and blood insulin level,[3],neither decreased blood sugar nor increased blood insulin level
same,% of Gastric Remains,[4]; [8],96.81 ± 11.61 %
same,Gross Weight of Stomach,[4]; [8],3.10 ± 0.22 g
same,Propelling Distance of Carbon Powder,[4]; [8],41.96 ± 5.30 cm
same,Propelling Rate of Carbon Powder,[4]; [8],46.97 ± 5.54 %
same,% of Gastric Remains,[4]; [9],132.66 ± 16.34 %
same,Gross Weight of Stomach,[4]; [9],3.78 ± 0.35 g
same,Propelling Distance of Carbon Powder,[4]; [9],30.58 ± 3.66 cm
same,Propelling Rate of Carbon Powder,[4]; [9],33.88 ± 3.98 %
same,% of Gastric Remains,[4]; [10],141.53 ± 7.18 %
same,Gross Weight of Stomach,[4]; [10],3.90 ± 0.15 g
same,Propelling Distance of Carbon Powder,[4]; [10],5.40 ± 1.84 cm
same,Propelling Rate of Carbon Powder,[4]; [10],5.94 ± 1.99 %
same,% of Gastric Remains,[4]; [11],44.14 ± 17.18%
same,Gross Weight of Stomach,[4]; [11],2.86 ± 0.52 g
same,Propelling Distance of Carbon Powder,[4]; [11],64.22 ± 3.84 cm
same,Propelling Rate of Carbon Powder,[4]; [11],61.80 ± 4.14%
same,% of Gastric Remains,[4]; [12],54.92 ± 14.32%
same,Gross Weight of Stomach,[4]; [12],3.08 ± 0.48 g
same,Propelling Distance of Carbon Powder,[4]; [12],34.40 ± 5.91 cm
same,Propelling Rate of Carbon Powder,[4]; [12],35.46 ± 6.15 %
same,% of Gastric Remains,[4]; [13],128.70 ± 14.23 %
same,Gross Weight of Stomach,[4]; [13],5.36 ± 0.52 g
same,Propelling Distance of Carbon Powder,[4]; [13],11.90 ± 6.38 cm
same,Propelling Rate of Carbon Powder,[4]; [13],12.28 ± 6.69 %
same,effect on glucose-induced high blood sugar,[5],lower glucose-induced high blood sugar
same,minimal effective dosage (inhibition of stomach emptying),[6]; female rats,10 µg/kg
same,% of Gastric Remains,[6]; [14],36.42 ± 6.50%
same,Gross Weight of Stomach,[6]; [14],1.86 ± 0.14 g
same,Propelling Distance of Carbon Powder,[6]; [14],53.01 ± 3.12 cm
same,Propelling Rate of Carbon Powder,[6]; [14],49.92 ± 2.97 %
same,% of Gastric Remains,[6]; [15],47.54 ± 5.22%
same,Gross Weight of Stomach,[6]; [15],2.03 ± 0.10 g
same,Propelling Distance of Carbon Powder,[6]; [15],49.50 ± 2.54 cm
same,Propelling Rate of Carbon Powder,[6]; [15],46.83 ± 2.41 %
same,% of Gastric Remains,[6]; [16],51.86 ± 6.07%
same,Gross Weight of Stomach,[6]; [16],2.18 ± 0.11 g
same,Propelling Distance of Carbon Powder,[6]; [16],44.50 ± 2.97 cm
same,Propelling Rate of Carbon Powder,[6]; [16],41.26 ± 2.63 %
same,% of Gastric Remains,[6]; [17],73.35 ± 16.68 %
same,Gross Weight of Stomach,[6]; [17],2.59 ± 0.38 g
same,Propelling Distance of Carbon Powder,[6]; [17],33.96 ± 5.58 cm
same,Propelling Rate of Carbon Powder,[6]; [17],32.15 ± 5.54 %
same,% of Gastric Remains,[6]; [18],120.95 ± 9.48 %
same,Gross Weight of Stomach,[6]; [18],3.55 ± 0.21 g
same,Propelling Distance of Carbon Powder,[6]; [18],25.06 ± 5.91 cm
same,Propelling Rate of Carbon Powder,[6]; [18],23.18 ± 5.46 %
same,% of Gastric Remains,[6]; [19],141.28 ± 8.90 %
same,Gross Weight of Stomach,[6]; [19],3.90 ± 0.20 g
same,Propelling Distance of Carbon Powder,[6]; [19],15.71 ± 4.58 cm
same,Propelling Rate of Carbon Powder,[6]; [19],14.36 ± 4.08 %
same,human dose corresponding to minimal effective dosage,[6]; from female rats 10 μg/kg,0.11 mg/day
same,human dose corresponding to minimal effective dosage,[6]; from male rats 30 μg/kg,0.33 mg/day
same,minimal effective dosage (inhibition of stomach emptying),[6]; male rats,30 µg/kg
same,% of Gastric Remains,[6]; [20],39.93 ± 6.46%
same,Gross Weight of Stomach,[6]; [20],2.39 ± 0.19 g
same,Propelling Distance of Carbon Powder,[6]; [20],55.20 ± 2.69 cm
same,Propelling Rate of Carbon Powder,[6]; [20],50.91 ± 2.84%
same,% of Gastric Remains,[6]; [21],38.98 ± 3.50%
same,Gross Weight of Stomach,[6]; [21],2.36 ± 0.09 g
same,Propelling Distance of Carbon Powder,[6]; [21],54.96 ± 3.96 cm
same,Propelling Rate of Carbon Powder,[6]; [21],50.36 ± 3.34%
same,% of Gastric Remains,[6]; [22],40.22 ± 7.06%
same,Gross Weight of Stomach,[6]; [22],2.42 ± 0.20 g
same,Propelling Distance of Carbon Powder,[6]; [22],52.27 ± 3.75 cm
same,Propelling Rate of Carbon Powder,[6]; [22],48.22 ± 3.05%
same,% of Gastric Remains,[6]; [23],58.23 ± 7.38 %
same,Gross Weight of Stomach,[6]; [23],2.92 ± 0.23 g
same,Propelling Distance of Carbon Powder,[6]; [23],42.82 ± 2.81 cm
same,Propelling Rate of Carbon Powder,[6]; [23],38.55 ± 2.81 %
same,% of Gastric Remains,[6]; [24],97.66 ± 9.95 %
same,Gross Weight of Stomach,[6]; [24],3.90 ± 0.27 g
same,Propelling Distance of Carbon Powder,[6]; [24],15.73 ± 4.30 cm
same,Propelling Rate of Carbon Powder,[6]; [24],14.67 ± 4.13 %
same,% of Gastric Remains,[6]; [25],110.28 ± 7.79 %
same,Gross Weight of Stomach,[6]; [25],4.21 ± 0.19 g
same,Propelling Distance of Carbon Powder,[6]; [25],14.64 ± 4.32 cm
same,Propelling Rate of Carbon Powder,[6]; [25],12.91 ± 3.68 %
same,effect on increase of blood sugar induced by alloxan and streptozotocin,[7],reduce the increase of blood sugar induced by alloxan and streptozotocin
